Measurements taken from patent publication US20260109721A1, “IONIZABLE CATIONIC LIPIDS INCORPORATING SILICON: SYNTHESIS AND LNP FORMULATION” (priority 2023, published 2026).

What was measured:
[1] = LNP size, PDI and zeta potential by Dynamic Light Scattering (Method A); format: physicochemical; settings: LNP formulated with the lipid, DLS
Outline: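 Dynamic light scattering gave size, polydispersity and zeta potential of Method A nanoparticles. These were made from Luc mRNA in 10 mM citrate pH 4.0 combined with ethanol lipid master mix plus ionizable lipid on a dean-type chip (3:1, TFR around 12 ml/min).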

HepG2 cell line = test: In vitro toxicity study on HepG2 cell line (resazurin, viability and IC50); format: cell-based, human; settings: for IC50: Homo sapiens, lipid toxicity, HepG2, 48 h post-treatment, 6.25-800 μM, read-out: IC50 value, μM (on HepG2 cell)
Outline: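 Resazurin read-out (ex 530/em 580 nm, 5 h at 37 °C) measured lipid toxicity 48 h after dosing HepG2 cells (1000/well) at 6.25–800 μM. Viability was normalised to ethanol vehicle, and IC50 was derived from concentration-response curves.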

[2] = HepG2 cells, 6.25 μM lipid, 48 h post-treatment, resazurin, relative to ethanol vehicle controls
[3] = HepG2 cells, 12.5 μM lipid, 48 h post-treatment, resazurin, relative to ethanol vehicle controls
[4] = HepG2 cells, 25 μM lipid, 48 h post-treatment, resazurin, relative to ethanol vehicle controls
[5] = HepG2 cells, 50 μM lipid, 48 h post-treatment, resazurin, relative to ethanol vehicle controls
[6] = HepG2 cells, 100 μM lipid, 48 h post-treatment, resazurin, relative to ethanol vehicle controls
[7] = HepG2 cells, 200 μM lipid, 48 h post-treatment, resazurin, relative to ethanol vehicle controls
[8] = HepG2 cells, 400 μM lipid, 48 h post-treatment, resazurin, relative to ethanol vehicle controls
[9] = HepG2 cells, 800 μM lipid, 48 h post-treatment, resazurin, relative to ethanol vehicle controls

Compound | PDI [1] | Size (nm) [1] | Zeta potential (mV) [1] | Viability (%) at different lipid concentrations, mean (HepG2 cell line; [2]) | Viability (%) at different lipid concentrations, mean (HepG2 cell line; [3]) | Viability (%) at different lipid concentrations, mean (HepG2 cell line; [4]) | Viability (%) at different lipid concentrations, mean (HepG2 cell line; [5]) | Viability (%) at different lipid concentrations, mean (HepG2 cell line; [6]) | Viability (%) at different lipid concentrations, mean (HepG2 cell line; [7]) | Viability (%) at different lipid concentrations, mean (HepG2 cell line; [8]) | Viability (%) at different lipid concentrations, mean (HepG2 cell line; [9]) | IC50 (HepG2 cell line; resazurin) | Viability (%) at different lipid concentrations, mean (HepG2 cell line; human, 48 h, 25 μM)
CCCCC/C=C\C/C=C\CCCCCCCCOC(CCCCCN(C)CC(O)CO)O[Si](C)(C)OCCCCCCCC/C=C\C/C=C\CCCCC (centres unmarked) [Example 66, (22Z,25Z)-4,12,12-trimethyl-10-(((9Z,12Z)-octadeca-9,12-dien-1-yl)oxy)-11,13-dioxa-4-aza-12-silahentriaconta-22,25-diene-1,2-diol] | 0.043 | 223.6 nm | −11.66 mV | 100.5% | 97.9% | 97.2% | 96.5% | 94.2% | 95.5% | 86.0% | 42.6% | 164 µM | 
C#CCN(C)CCCCCCO[Si](C)(C)OC(CCCCCCC/C=C\C/C=C\CCCCC)OCCCCCCCC/C=C\C/C=C\CCCCC (centres unmarked) [Example 67, (20Z,23Z)-10-((8Z,11Z)-heptadeca-8,11-dien-1-yl)-N,8,8-trimethyl-N-(prop-2-yn-1-yl)-7,9,11-trioxa-8-silanonacosa-20,23-dien-1-amine] | 0.058 | 127.2 nm | −8.62 mV | 100.2% | 97.1% | 99.5% | 95.6% | 92.6% | 24.8% | 3.0% | 1.7% |  | 
CCCCC/C=C\C/C=C\CCCCCCCCOC(CCCCCCC/C=C\C/C=C\CCCCC)O[Si](C)(C)OCCCCCCN(C)Cc1cn(C2[C@H](O)O[C@H](CO)[C@@H](O)[C@@H]2O)nn1 (stereo partly drawn) [Example 68, (4R,5S,6R)-3-(4-((22Z,25Z)-12-((8Z,11Z)-heptadeca-8,11-dien-1-yl)-2,10,10-trimethyl-9,11,13-trioxa-2-aza-10-silahentriaconta-22,25-dien-1-yl)-1H-1,2,3-triazol-1-yl)-6-(hydroxymethyl)tetrahydro-2H-pyran-2,4,5-triol] | 0.081 | 109.9 nm | −6.380 mV | 99.4% | 97.7% | 107.3% | 120.2% | 117.6% | 103.6% | 68.1% | 12.3% | 461 µM | 
CCCCC/C=C\C/C=C\CCCCCCCCOC(CCCCCCC/C=C\C/C=C\CCCCC)O[Si](C)(C)OCCCCCCN(CCO)CCN(CCO)CCCCCCO[Si](C)(C)OC(CCCCCCC/C=C\C/C=C\CCCCC)OCCCCCCCC/C=C\C/C=C\CCCCC (centres unmarked) [Example 71, (26Z,29Z)-16-((8Z,11Z)-heptadeca-8,11-dien-1-yl)-3-((20Z,23Z)-10-((8Z,11Z)-heptadeca-8,11-dien-1-yl)-8,8-dimethyl-7,9,11-trioxa-8-silanonacosa-20,23-dien-1-yl)-6-(2-hydroxyethyl)-14,14-dimethyl-13,15,17-trioxa-3,6-diaza-14-silapentatriaconta-26,29-dien-1-ol] | 0.103 | 166.6 nm | −11.09 mV | 102.71% | 102.5% | 106.2% | 107.61% | 93.09% | 72.87% | 39.19% | 9.92% | 321 µM | 
CCCCCCCC/C=C\CCCCCCCC(OCC(CCCCCCCC)SCCCCC)O[Si](C)(C)OCCCCCCN(CCO)CCO (centres unmarked) [Example 72, (Z)-13-(heptadec-8-en-1-yl)-3-(2-hydroxyethyl)-11,11-dimethyl-16-octyl-10,12,14-trioxa-17-thia-3-aza-11-siladocosan-1-ol] | 0.17 | 84.37 nm | −14.24 mV | 104.3% | 94.1% | 102.5% | 101.6% | 100.3% | 96.6% | 110.6% | 103.0% | > 800 µM | 
CCCCCCCC/C=C\CCCCCCCC(OCCCCCCCCCCCC1CCCCC1)O[Si](C)(C)OCCCCCCN(CCO)CCO (centres unmarked) [Example 74, (Z)-25-cyclohexyl-13-(heptadec-8-en-1-yl)-3-(2-hydroxyethyl)-11,11-dimethyl-10,12,14-trioxa-3-aza-11-silapentacosan-1-ol] | 0.19 | 73.11 nm | −9.76 mV | 101.5% | 100.8% |  | 112.5% | 121.9% | 117.3% | 103.1% | 93.8% | > 800 µM | 107.8%
CCCCCCCC/C=C\CCCCCCCC(OCCC(C)CCCC(C)CCCC(C)CCCC(C)C)O[Si](C)(C)OCCCCCCN(CCO)CCO (centres unmarked) [Example 75, (Z)-13-(heptadec-8-en-1-yl)-3-(2-hydroxyethyl)-11,11,17,21,25,29-hexamethyl-10,12,14-trioxa-3-aza-11-silatriacontan-1-ol] | 0.18 | 76.35 nm | −13.40 mV | 110.3% | 109.2% | 105.7% | 104.5% | 102.8% | 112.9% | 102.4% | 90.2% | > 800 µM | 
CCCCCCCC/C=C\CCCCCCCC(OCCCCCCCCCCCCCCC(C)C)O[Si](C)(C)OCCCCCCN(CCO)CCO (centres unmarked) [Example 76, (Z)-13-(heptadec-8-en-1-yl)-3-(2-hydroxyethyl)-11,11,29-trimethyl-10,12,14-trioxa-3-aza-11-silatriacontan-1-ol] | 0.2 | 108.4 nm | −19.39 mV | 101.9% | 100.5% | 98.5% | 100.8% | 112.3% | 103.8% | 77.7% | 70.0% | > 800 µM | 
